Data set [1] deals with T. gondii ME49 tachyzoites. Briefly: T. gondii in vitro growth assay ([3H]-uracil incorporation). Particulars: for IC50: Toxoplasma gondii, T. gondii type II ME49 strain in Hs27 host cells, n = 6; for activity against T. gondii growth (in words): T. gondii type II ME49 strain, [3H]-uracil incorporation. The class given is cell-based, Toxoplasma gondii. The method, then:
With the aim to assess the inhibitory in vitro effect on parasite growth, T. gondii growth assays were performed as described previously [[78-80]]. Compounds, previously diluted in culture media in appropriate stock solutions, were added to confluent monolayers of Hs27 cells in 96-flat well plates at various concentrations. Then, freshly harvested tachyzoites were added to the cultures at a multiplicity of infection of 1:1 (parasite/host cell ratio). As controls, untreated and uninfected Hs27 cells, 24 h pre-stimulated and T. gondii infected cells with human interferon γ (IFN γ) (300 U/ml) (Merck, Darmstadt, Germany, #I17001) and T. gondii infected cells only were employed. After 48 h incubation, proliferating toxoplasmas were labelled with 0.3 μCi/well of tritiated uracil (^3H-U; 5 mCi, Hartmann Analytic, Braunschweig, Germany, #ART1782). After 28-30 h of incubation, plates were frozen at -20°C overnight. Cells were then thawed and harvested (Basic96 Harvester; Zinsser Analytic, Skatron Instruments, Northridge, CA, U.S.A.), purified with glass fibre filters (Printed Filtermat A 102 mm × 258 mm; PerkinElmer, Waltham, MA, U.S.A.) and dried at 130°C for 15-20 min. Dried filters were then wrapped into transparent plastic covers, dunked with 10 ml scintillation cocktail (Betaplate Scint; PerkinElmer, Waltham, MA, U.S.A., #1205-440), sealed and then loaded into metal cassettes and the incorporation of ^3H-uracil into the RNA of proliferating toxoplasmas was measured using a β-counter, a liquid scintillation counter that measure the […] (Betaplate Liquid Scintillation Counter 1205; LKB-[…], Melbourne, Australia). All data sets were normalized to 100% of the positive control. The dose-response curves of the compounds were fitted by means of the statistics software GraphPad PRISMTM (Version 9.5.1; San Diego, CA, U.S.A.). The minimal concentrations of compounds required for 50% inhibition of the parasite (IC50 values) were determined by non-linear regression analysis. Pyrimethamine was used as reference anti-toxoplasma compound.

Data set [2] in a line: MTT cytotoxicity assay on host cells. It counts as cell-based. Particulars: human, Hs27 fibroblasts, 24 h incubation. On the procedure: The method based on the reduction of the tetrazolium dye MTT [3-(4,5-dimethylthiazole-2-yl)-2,5-diphenyltetrazolium bromide] to its purple insoluble formazan by mitochondrial NAD(P)H-dependent cellular oxidoreductase enzymes in living cells, previously described by Mosmann was employed to assess the cytotoxic effects of the examined DXR inhibitors on the host cells, as previously described [[78–80]]. Briefly, Hs27 cells were cultured in 96-well plates at a concentration of 5 × 10^4/well in (IMDM, Gibco–Thermo Fisher Scientific, Waltham, MA, U.S.A., #12440053) with a volume of 100 µl per well and incubated at 37°C overnight. Then, eleven two-fold serially diluted concentrations of the investigated compounds ranging from […] were prepared and added to each well. Hs27 cells were then incubated for 24 h in humidified atmosphere of 5% CO2 in air. Controls included wells containing medium alone without cells (blank), untreated Hs27 cells, DMSO (negative control) and staurosporine (0.031, 0.062, 0.125, 0.25, 0.5, 1 µM) (Merck, Darmstadt, Germany, #S4400) as apoptosis inducer. After incubation, the culture media was replaced with 100 µl of DMEM medium without phenol (Gibco-Thermo Fisher Scientific, Waltham, MA, U.S.A., #21041025) plus 10% heat-inactivated (FBS Standard, South America origin, FBS, 2 µm sterile filtered, PAN-Biotech, Aidenbach, Germany, #P30-3306), and […] 2-mercaptoethanol (Gibco-Thermo Fisher Scientific, Waltham, MA, U.S.A., #21985023). Thereafter, the MTT reagent was added to each well and analysis conducted following the manufacture instructions (CyQuant MTT Cell Viability Assay Kit, Thermo Fisher Scientific, Waltham, MA, U.S.A., #V-13154). The absorbance was measured at 570 nm on an ELISA microplate reer (TECAN Sunrise, Männedorf, Switzerland) and the percentage of viability was calculated when compared with the untreated control. The data set was subsequently adjusted by applying blank correction. Cell viability values expressed as percentage of the negative control value were calculated as follows: %Cellviability=meanabsorbanceoftreatedwells−blank/meanabsorbanceofnegativecontrol−blank×100. The cytotoxicity of each compound was expressed as half maximal cytotoxic concentration (CC50 values) against Hs27 cells. These values were calculated by a non-linear regression using GraphPad PRISM™ statistics software package (Version 9.5.1; San Diego, CA, U.S.A.) plotting the percentage viability against the log of compound concentrations.

Data set [3] has as its target T1, TgDXR (Toxoplasma gondii, UniProt S8ESX0). Briefly: T. gondii DXR enzyme inhibition assay (NADPH oxidation, absorption at 340 nm). The class given is biochemical. The note with it: for IC50: 100 nM truncated His10-TgDXR, 100 µM NADPH, 4 mM MgCl2, 100 µM DXP, pH 7.5, 30°C, n = 6, read-out: IC50 ± S.D.; for Ki: Ki = IC50/(1 + [S]/Km), [S] = 100 µM DXP, Km = 30.58 µM. On the procedure: The enzymatic assays were conducted at 30°C in 96 well plates using a total reaction volume of 150 µl containing 100 nM of purified TgDXR protein in dimeric state, 100 µM of NADPH and 4 mM of MgCl2 as cofactors, 100 µM of DXP as substrate in 50 mM HEPES buffer (pH 7.5) containing 50 µg/ml of BSA. For the screening, DXR inhibitors were tested for their inhibitory activity and their IC50 measurements at concentrations ranging from 100 µM to 3.05 nM, in dilution steps 1:2.
To optimize and to ensure the interaction of NADPH and its enzyme binding pocket, the assay solution was incubated for 10 min at 37°C. Then, the reaction was commenced with the addition of 100 µM of DXP to the complete assay mixture. The reaction was monitored by measuring the absorption at 340 nm every minute for 1 h using a microplate reader (Tecan® 200 Pro, Tecan Group, Männedorf, Switzerland). The initial velocity of the reactions were calculated, the values were then used in the software GraphPad PRISM™ (Version 9.5.1; San Diego, CA, U.S.A.) for determinations of the IC50 values.

Data set [4] addresses T1, TgDXR. The data set is described as follows: TgDXR enzyme kinetic characterization (Michaelis-Menten). It counts as biochemical. Particulars: 100 nM TgDXR, substrate or cofactor varied 7.8 to 500 µM; n = 8. The method, then: (§1) To biochemically characterize the catalytic ability of the truncated TgDXR for the conversion of DXP into MEP in the presence of the cofactors Mg^2+ and NADPH, and to determine the optimum conditions for maximum enzyme activity, the enzymatic assays were monitored at 340 nm (maximal absorbance of NADPH) in different conditions.
(§2) The enzymatic activity was evaluated in fixed conditions, using 50 mM HEPES buffer containing 50 µg/ml of bovine serum albumin (BSA) containing 100 nM of purified TgDXR protein in dimeric state. In each experimental evaluation, only one parameter was varied: either the substrate (DXP) concentration (ranging from 7.8 to 500 µM), or the cofactor NADPH (ranging from 7.8 to 500 µM), or Mg^2+ concentration (ranging from 1 to 6 mM) or the pH (ranging from 5.5 to 9) (Figure 3).
(§3) For the determination of the kinetic parameters, various concentration of the substrate DXP or NADPH were employed for the determination of the apparent Km (substrate concentration that yield a half-maximal velocity) and Vmax (maximum velocity) for the enzyme. These parameters were calculated by a non-linear regression with the software GraphPad PRISM™ (Version 9.5.1; San Diego, CA, U.S.A.) plotting the initial velocity of the reactions and using the Michaelis–Menten model (Figure 3).

Substrate in data set [5]: CC(=O)[C@@H](O)[C@H](O)COP(=O)(O)O
Described as above. The class given is biochemical, Toxoplasma gondii. The note with it: other: 100 nM TgDXR, substrate or cofactor varied 7.8 to 500 µM; n = 8. On the procedure:
as §1, §2, §3

As a reminder, the IC50 is the midpoint of a concentration-inhibition curve. Usually CC50 stands for the concentration at which the toxic effect on the cells reaches its halfway point. Usually Ki stands for the dissociation constant of the complex between target and ligand, obtained from inhibition or displacement. `CN(O)C(=O)CSC(c1ccccc1)P(=O)(O)O` (stereo not shown) [Compound 2, (((2-(hydroxy(methyl)amino)-2-oxoethyl)thio)(phenyl)methyl)phosphonic acid] yielded an IC50 in data set [1] above 100 µM. This molecule also showed a cytotoxic concentration (CC50) at 24 h in data set [2] above 200 µM. Moreover, in data set [3], the IC50 turned out to be 1.23 ± 0.12 µM and the Ki was found to be 0.37 µM.
For the molecule `CN(O)C(=O)CSC(c1ccc(F)c(F)c1)P(=O)(O)O` (stereo not shown) [Compound 3, ((3,4-difluorophenyl)((2-(hydroxy(methyl)amino)-2-oxoethyl)thio)methyl)phosphonic acid], in data set [1], the “activity against T. gondii growth (in words)” value (“activity” for short) is given as “demonstrated activity” and half-maximal inhibition (IC50) required 14.4 ± 1.94 µM. For the same molecule, the CC50 at 24 h in data set [2] is above 200 µM. Further, in data set [3], the IC50 was 0.64 ± 0.38 µM and the Ki was 0.19 µM.
In the case of `CN(O)C(=O)CSC(c1ccc(Cl)c(Cl)c1)P(=O)(O)O` (stereo not shown) [Compound 4, ((3,4-dichlorophenyl)((2-(hydroxy(methyl)amino)-2-oxoethyl)thio)methyl)phosphonic acid], in data set [1], the “activity” value was “demonstrated activity” and the IC50 was found to be 5.46 ± 1.22 µM. This molecule registered a CC50 at 24 h in data set [2] above 200 µM. In data set [3], the IC50 is 0.62 ± 0.12 µM and the Ki was found to be 0.19 µM.
In the case of `CN(O)C(=O)CSC(c1cc(F)cc(F)c1)P(=O)(O)O` (stereo not shown) [Compound 5, ((3,5-difluorophenyl)((2-(hydroxy(methyl)amino)-2-oxoethyl)thio)methyl)phosphonic acid], in data set [1], the “activity” value is “demonstrated activity” and the IC50 is 56 ± 6.11 µM. Besides, the CC50 at 24 h in data set [2] was above 200 µM. Moreover, in data set [3], the IC50 came to 2.45 ± 0.54 µM and the Ki was found to be 0.74 µM.
Taken in the same sequence, the figures for `COc1cc(OC)cc(C(SCC(=O)N(C)O)P(=O)(O)O)c1` (stereo not shown) [Compound 6, ((3,5-dimethoxyphenyl)((2-(hydroxy(methyl)amino)-2-oxoethyl)thio)methyl)phosphonic acid] were “demonstrated activity”, 12.5 ± 5.56 µM, above 200 µM, 3.9 ± 1.06 µM and 1.18 µM.
For `CN(O)C(=O)COC(c1ccccc1)P(=O)(O)O` (stereo not shown) [Compound 7, ((2-(hydroxy(methyl)amino)-2-oxoethoxy)(phenyl)methyl)phosphonic acid], the “activity” value in data set [1] is listed as “demonstrated activity”. The IC50 was found to be 48.2 ± 8.56 µM in data set [1] and 5.82 ± 1.52 µM in data set [3]. In addition, the CC50 at 24 h in data set [2] was above 200 µM.
As for `CN(O)C(=O)COC(c1ccc(F)c(F)c1)P(=O)(O)O` (stereo not shown) [Compound 8, ((3,4-difluorophenyl)(2-(hydroxy(methyl)amino)-2-oxoethoxy)methyl)phosphonic acid], the half-inhibitory concentration (IC50) in data set [1] is above 100 µM; in data set [3], 52.14 ± 0.34 µM. In data set [2], this molecule showed a CC50 at 24 h above 200 µM.
In data set [1], `CN(O)C(=O)COC(c1ccc(Cl)c(Cl)c1)P(=O)(O)O` (stereo not shown) [Compound 9, ((3,4-dichlorophenyl)(2-(hydroxy(methyl)amino)-2-oxoethoxy)methyl)phosphonic acid] yielded an IC50 above 100 µM. This molecule had a CC50 at 24 h in data set [2] above 200 µM. Also, in data set [3], the concentration for half-maximal inhibition (IC50) was determined as 2.44 ± 0.43 µM and the Ki was 0.74 µM.
Regarding `Cc1ccc(C(OCC(=O)N(C)O)P(=O)(O)O)cc1` (stereo not shown) [Compound 10, ((2-(hydroxy(methyl)amino)-2-oxoethoxy)(p-tolyl)methyl)phosphonic acid], the IC50 in data set [1] is above 100 µM; in data set [3], 7.68 ± 0.87 µM. The CC50 at 24 h in data set [2] is above 200 µM. Further, the Ki in data set [3] was 2.51 µM.
The molecule `CCc1nc(N)nc(N)c1-c1ccc(Cl)cc1` [Pyrimethamine, pyrimethamine, reference compound] came in with an IC50 in data set [1] of 0.22 ± 0.05 µM. Moreover, the CC50 at 24 h in data set [2] was above 100 µM.
The Km is the substrate concentration at which the rate is half of its maximum. With NADPH, the Km in data set [4] is 51.3 ± 11.8 µM.

B1: TgDXR (Toxoplasma gondii ME49) (protein)
chain: PSTRVKRLVVLGSTGSIGKSTLEIAREFPDIFQIVGLAAGGSNLALLAEQVAAFRPQYVYLGDSSKVAELQERLNDHERSAAFPRPRLLLGDEGLAELACVPNYDILVSAIVGFKGVLPTLKALEAGKDVALANKEALVAAGPVFRCLLSTRGLLYGDQERQDRHERSHRSGDQEGDREEDTDGDRREECDKRRAKAGQKCGLLLPVDSEHSAIFQALQGVPASCYPPRKLLLTASGGPFRGRTRDELEQVTLESALKHPKWSMGAKITIDSATLMNKGLEVIEAHFAFGCPYSSIEVLVHPQAVIHSAVELRDGATLAQLGLPDMKLPIAYALTWPHRLAAPWSAGVDLTREGNLTFEKPDLNTFGCLGLAYEAGERGGVAPACLNAANEVAVERFRNKEIGFVDIEDTVRHVMALQERERDNFSDVSLQDVFDADHWARTAARAFKPRK
As for B1, the Km in data set [5] came out at 30.58 ± 6.33 µM.

(Values after paper PMC11346426, “1-Deoxy-D-xylulose 5-phosphate reductoisomerase as target for anti Toxoplasma gondii agents: crystal structure, biochemical characterization and biological evaluation of inhibitors” (Biochemical Journal, 2024).)
